Values of other authors as cited in paper PMC9177108 (The Oncologist, 2022).

How the values were obtained:
[1] = test system: patients with RM-NPC; settings: 37 recruited patients with RM-NPC; cited from earlier work
[2] = test system: NPC patients; settings: 58 NPC patients, cited from earlier work
[3] = test system: relapsed and refractory patients with NPC; settings: cited from earlier work
[4] = test system: patients with NPC; settings: 33 patients with NPC; cited from earlier work
[5] = test system: patients with advanced NPC; settings: first-line regimen; cited from earlier work

For `CNC(=O)c1ccccc1Sc1ccc2c(/C=C/c3ccccn3)n[nH]c2c1` [Axitinib], the DCR [1] is given as 78.4, the ORR [1] is given as 19% and the “median PFS” value [1] is given as 5 months. For the same compound, the “overall survival (OS)” value [1] was 10 months.

In the case of `CCN(CC)CCN1CCc2[nH]c(/C=C3\C(=O)Nc4ccc(F)cc43)c(C)c2C1=O` [Famitinib], the ORR [2] is given as 6.9%, the “median PFS” value [2] is given as 3.2 months and the DCR ([2]; at 3 months) is given as 32.8%.

In the case of `N#CC1(c2ccc(NC(=O)c3cccnc3NCc3ccncc3)cc2)CCCC1` [apatinib], the ORR ([3]; 51 patients (16/51), no response to first- or second-line chemotherapy) is given as 31.4%, the OS ([3]; 51 patients) is given as 16 months and the “median PFS” value ([3]; 51 patients) is given as 9 months.

For `Cc1ccc(Nc2nccc(N(C)c3ccc4c(C)n(C)nc4c3)n2)cc1S(N)(=O)=O` [pazopanib], the ORR [4] is given as 6.1%.

In the case of cisplatin and 5-fluorouracil, the “median PFS” value [5] is given as 11-14 months and the response rate [5] is given as 66-78%.
